From paper PMC5218480 (PLoS ONE, 2017)

Tested on: MV-4-11 cells
Assay: Gene expression microarray analysis (Affymetrix PrimeView) and GSEA
Type: cell-based, human
Design: RFU PODN (11730768_x_at) / Fold change /veh PODN (11730768_x_at) / RFU LINC00158 (11744669_a_at) / Fold change /veh LINC00158 (11744669_a_at) / RFU DUSP10 (11751237_a_at) / Fold change /veh DUSP10 (11751237_a_at) / RFU ID3 (11757404_x_at) / Fold change /veh ID3 (11757404_x_at) / RFU PLEKHG5 (11737974_s_at) / Fold change /veh PLEKHG5 (11737974_s_at) / RFU LRRC4B (11730491_at) / Fold change /veh LRRC4B (11730491_at) / RFU GIMAP4 (11747438_a_at) / Fold change /veh GIMAP4 (11747438_a_at) / RFU KRT8 (11758183_x_at) / Fold change /veh KRT8 (11758183_x_at) / RFU CNN1 (11734310_a_at) / Fold change /veh CNN1 (11734310_a_at) / RFU VPS37D (11726825_at) / Fold change /veh VPS37D (11726825_at) / RFU C10orf10 (11716522_x_at) / Fold change /veh C10orf10 (11716522_x_at) / RFU KIR2DL2 /// KIR2DL4 /// KIR2DL5A /// KIR2DL5B /// KIR2DS1 /// KIR2DS2 /// KIR2DS3 /// KIR2DS4 /// KIR3DL3 /// KIR3DL3 /// KIR3DS1 (11738374_at) / Fold change /veh KIR2DL2 /// KIR2DL4 /// KIR2DL5A /// KIR2DL5B /// KIR2DS1 /// KIR2DS2 /// KIR2DS3 /// KIR2DS4 /// KIR3DL3 /// KIR3DL3 /// KIR3DS1 (11738374_at) / RFU C1QL1 (11718748_at) / Fold change /veh C1QL1 (11718748_at) / RFU TMPRSS4 (11747572_a_at) / Fold change /veh TMPRSS4 (11747572_a_at) / RFU HAMP (11756126_x_at) / Fold change /veh HAMP (11756126_x_at) / RFU RNFT2 (11725882_a_at) / Fold change /veh RNFT2 (11725882_a_at) / RFU NR4A2 (11747474_a_at) / Fold change /veh NR4A2 (11747474_a_at) / RFU ABCC12 (11746883_a_at) / Fold change /veh ABCC12 (11746883_a_at) / RFU TMEM136 (11760407_x_at) / Fold change /veh TMEM136 (11760407_x_at) / RFU CLDN22 /// WWC2 (11732394_at) / Fold change /veh CLDN22 /// WWC2 (11732394_at) / RFU HLA-DPB1 (11760878_x_at) / Fold change /veh HLA-DPB1 (11760878_x_at) / RFU SPINT1 (11716480_a_at) / Fold change /veh SPINT1 (11716480_a_at) / RFU GAP43 (11754022_s_at) / Fold change /veh GAP43 (11754022_s_at) / RFU A4GNT (11735810_at) / Fold change /veh A4GNT (11735810_at) / RFU PRB3 (11715151_x_at) / Fold change /veh PRB3 (11715151_x_at) / RFU TUBB4B (11761932_at) / Fold change /veh TUBB4B (11761932_at) / RFU CAPN14 (11732068_a_at) / Fold change /veh CAPN14 (11732068_a_at) / RFU TMCC2 (11721928_a_at) / Fold change /veh TMCC2 (11721928_a_at) / RFU IRGQ (11745062_a_at) / Fold change /veh IRGQ (11745062_a_at) / RFU FAM174B (11720279_a_at) / Fold change /veh FAM174B (11720279_a_at) / RFU TMPRSS4 (11748680_a_at) / Fold change /veh TMPRSS4 (11748680_a_at) / RFU FAM212B (11763350_a_at) / Fold change /veh FAM212B (11763350_a_at) / RFU PLEKHG5 (11743358_a_at) / Fold change /veh PLEKHG5 (11743358_a_at) / RFU ZSCAN30 (11745921_a_at) / Fold change /veh ZSCAN30 (11745921_a_at) / RFU CMKLR1 (11741424_a_at) / Fold change /veh CMKLR1 (11741424_a_at) / RFU LOC101060620 /// MAPK8IP1 (11723275_at) / Fold change /veh LOC101060620 /// MAPK8IP1 (11723275_at) / RFU SPTSSB (11747773_x_at) / Fold change /veh SPTSSB (11747773_x_at) / RFU PRSS12 (11739890_at) / Fold change /veh PRSS12 (11739890_at) / RFU BIN1 (11741810_x_at) / Fold change /veh BIN1 (11741810_x_at) / RFU WNT11 (11732464_a_at) / Fold change /veh WNT11 (11732464_a_at) / RFU C10orf10 (11716521_a_at) / Fold change /veh C10orf10 (11716521_a_at) / RFU C5orf56 (11738089_at) / Fold change /veh C5orf56 (11738089_at) / RFU CYB561 (11721691_x_at) / Fold change /veh CYB561 (11721691_x_at) / RFU ANKRD19P (11752326_a_at) / Fold change /veh ANKRD19P (11752326_a_at) / RFU OR2T12 /// OR2T33 /// OR2T8 (11738714_s_at) / Fold change /veh OR2T12 /// OR2T33 /// OR2T8 (11738714_s_at) / RFU VCAN (11748164_a_at) / Fold change /veh VCAN (11748164_a_at) / RFU JSRP1 (11732532_at) / Fold change /veh JSRP1 (11732532_at) / RFU KRTAP10-11 (11738290_x_at) / Fold change /veh KRTAP10-11 (11738290_x_at) / RFU MYO3A (11730013_a_at) / Fold change /veh MYO3A (11730013_a_at) / RFU EBF3 (11725865_a_at) / Fold change /veh EBF3 (11725865_a_at) / RFU CAMK2N1 (11719241_x_at) / Fold change /veh CAMK2N1 (11719241_x_at) / RFU C5orf56 (11738088_a_at) / Fold change /veh C5orf56 (11738088_a_at) / RFU OLFML3 (11715873_a_at) / Fold change /veh OLFML3 (11715873_a_at) / RFU LOC100653217 /// NTM (11731650_a_at) / Fold change /veh LOC100653217 /// NTM (11731650_a_at) / RFU MAPK11 (11762145_a_at) / Fold change /veh MAPK11 (11762145_a_at) / RFU FIZ1 (11724087_x_at) / Fold change /veh FIZ1 (11724087_x_at) / RFU OASL (11726364_x_at) / Fold change /veh OASL (11726364_x_at) / RFU SOX15 (11748057_x_at) / Fold change /veh SOX15 (11748057_x_at) / RFU CD79A (11719716_a_at) / Fold change /veh CD79A (11719716_a_at) / RFU HIST1H1D (11736915_at) / Fold change /veh HIST1H1D (11736915_at) / RFU CASKIN2 (11723855_a_at) / Fold change /veh CASKIN2 (11723855_a_at) / RFU LOC730098 (11760151_x_at) / Fold change /veh LOC730098 (11760151_x_at) / RFU OR4N2 (11742367_at) / Fold change /veh OR4N2 (11742367_at) / RFU PRRT2 (11749266_a_at) / Fold change /veh PRRT2 (11749266_a_at) / RFU SNX32 (11753110_a_at) / Fold change /veh SNX32 (11753110_a_at) / RFU CDHR5 (11726645_a_at) / Fold change /veh CDHR5 (11726645_a_at) / RFU RCAN1 (11760418_a_at) / Fold change /veh RCAN1 (11760418_a_at) / RFU FAM167A (11723789_a_at) / Fold change /veh FAM167A (11723789_a_at) / RFU FAM26E (11764081_at) / Fold change /veh FAM26E (11764081_at) / RFU ISYNA1 (11749810_s_at) / Fold change /veh ISYNA1 (11749810_s_at) / RFU ACY1 (11761880_at) / Fold change /veh ACY1 (11761880_at) / RFU 11764098_at / Fold change /veh 11764098_at / RFU SAMD14 (11745864_x_at) / Fold change /veh SAMD14 (11745864_x_at) / RFU NPB (11741838_a_at) / Fold change /veh NPB (11741838_a_at) / RFU TMPRSS6 (11731388_a_at) / Fold change /veh TMPRSS6 (11731388_a_at) / RFU KRTAP10-2 (11738614_at) / Fold change /veh KRTAP10-2 (11738614_at) / RFU ARHGAP8 /// PRR5-ARHGAP8 (11727945_x_at) / Fold change /veh ARHGAP8 /// PRR5-ARHGAP8 (11727945_x_at) / RFU KRTAP5-7 /// NADSYN1 (11734609_at) / Fold change /veh KRTAP5-7 /// NADSYN1 (11734609_at) / RFU RASL12 (11751679_a_at) / Fold change /veh RASL12 (11751679_a_at) / RFU CDKN2B (11736163_a_at) / Fold change /veh CDKN2B (11736163_a_at) / RFU PRF1 (11729649_at) / Fold change /veh PRF1 (11729649_at) / RFU, ZNF638 /// ZNF638-IT1 / Fold change vs veh, ZNF638 /// ZNF638-IT1 / RFU, PANK3 / Fold change vs veh, PANK3 / RFU, SH3YL1 / Fold change vs veh, SH3YL1 / RFU, ZEB2 / Fold change vs veh, ZEB2 / RFU, NRIP1 / Fold change vs veh, NRIP1 / RFU, PTTG1IP / Fold change vs veh, PTTG1IP / RFU, CAPN2 / Fold change vs veh, CAPN2 / RFU, MED14 / Fold change vs veh, MED14 / RFU, SNORA58 / Fold change vs veh, SNORA58 / RFU, C1orf63 / Fold change vs veh, C1orf63 / RFU, LRRFIP1 / Fold change vs veh, LRRFIP1 / RFU, NDUFAF7 / Fold change vs veh, NDUFAF7 / RFU, SLC12A2 / Fold change vs veh, SLC12A2 / RFU, IBTK / Fold change vs veh, IBTK / RFU, ESF1 / Fold change vs veh, ESF1 / Fold change vs veh, TMEM50B / RFU, TAOK1 / Fold change vs veh, TAOK1 / RFU, ACBD3 / Fold change vs veh, ACBD3 / RFU, TMA16 / Fold change vs veh, TMA16 / RFU, RWDD3 / Fold change vs veh, RWDD3 / RFU, BCAT1 / Fold change vs veh, BCAT1 / RFU, EDEM3 / Fold change vs veh, EDEM3 / RFU, TMEM33 / Fold change vs veh, TMEM33 / RFU, WDR75 / Fold change vs veh, WDR75 / RFU, AHCTF1 / Fold change vs veh, AHCTF1 / RFU, TFRC / Fold change vs veh, TFRC / RFU, ZDHHC17 / Fold change vs veh, ZDHHC17 / RFU, NOM1 / Fold change vs veh, NOM1 / RFU, ARL8B / Fold change vs veh, ARL8B / RFU, ZBTB11 / Fold change vs veh, ZBTB11 / RFU, TAMM41 / Fold change vs veh, TAMM41 / RFU, KIAA1704 /// LOC100996395 / Fold change vs veh, KIAA1704 /// LOC100996395 / RFU, ING1 / Fold change vs veh, ING1 / RFU, TRMT61B / Fold change vs veh, TRMT61B / RFU, FUBP3 / Fold change vs veh, FUBP3 / RFU, TP53 / Fold change vs veh, TP53 / RFU, TNKS2 / Fold change vs veh, TNKS2 / RFU, ZFP14 / Fold change vs veh, ZFP14 / RFU, ACTR2 / Fold change vs veh, ACTR2 / RFU, PPP3R1 / Fold change vs veh, PPP3R1 / RFU, PIK3R1 / Fold change vs veh, PIK3R1 / RFU, HNRNPA1 / Fold change vs veh, HNRNPA1 / RFU, RNF170 / Fold change vs veh, RNF170 / RFU, ZNF28 / Fold change vs veh, ZNF28 / RFU, RNGTT / Fold change vs veh, RNGTT / RFU, OGT / Fold change vs veh, OGT / RFU, BRD1 / Fold change vs veh, BRD1 / RFU, MARS / Fold change vs veh, MARS / RFU, ZNF655 / Fold change vs veh, ZNF655 / RFU, FAHD1 / Fold change vs veh, FAHD1 / RFU, BDP1 / Fold change vs veh, BDP1 / RFU, LRRCC1 / Fold change vs veh, LRRCC1 / RFU, ARID1A / Fold change vs veh, ARID1A / RFU, ZNF146 / Fold change vs veh, ZNF146 / RFU, ZNF330 / Fold change vs veh, ZNF330 / RFU, GPN3 / Fold change vs veh, GPN3 / RFU, C9orf123 / Fold change vs veh, C9orf123 / RFU, N4BP2L2 / Fold change vs veh, N4BP2L2 / RFU, ARFIP1 / Fold change vs veh, ARFIP1 / RFU, FAM179B / Fold change vs veh, FAM179B / RFU, BCL10 / Fold change vs veh, BCL10 / RFU, UHRF1BP1L / Fold change vs veh, UHRF1BP1L / RFU, BET1 / Fold change vs veh, BET1 / RFU, CNOT2 / Fold change vs veh, CNOT2 / RFU, ZNF268 / Fold change vs veh, ZNF268 / Fold change vs veh, ZNF507 / RFU, DGCR2 / Fold change vs veh, DGCR2 / RFU, WDSUB1 / Fold change vs veh, WDSUB1 / Fold change vs veh, HSP90B1 /// MIR3652 / RFU, ADSS / Fold change vs veh, ADSS / RFU, GK / Fold change vs veh, GK / RFU, ZNF148 / Fold change vs veh, ZNF148 / RFU, TAF9 / Fold change vs veh, TAF9 / RFU, SLC1A5 / Fold change vs veh, SLC1A5 / RFU, SLMO2 / Fold change vs veh, SLMO2 / RFU, ABCC4 / Fold change vs veh, ABCC4 / RFU, LOC101060439 /// RAP1B / Fold change vs veh, LOC101060439 /// RAP1B / RFU, RFX7 / Fold change vs veh, RFX7 / RFU, GTPBP10 / Fold change vs veh, GTPBP10 / RFU, CNEP1R1 / Fold change vs veh, CNEP1R1 / RFU, BIVM-ERCC5 /// ERCC5 / Fold change vs veh, BIVM-ERCC5 /// ERCC5 / RFU, ILF3 / Fold change vs veh, ILF3 / RFU 11762660_at / Fold change /veh 11762660_at / RFU VCAN (11757783_s_at) / Fold change /veh VCAN (11757783_s_at) / RFU DDX43 (11728927_at) / Fold change /veh DDX43 (11728927_at) / RFU KRT8 (11758188_x_at) / Fold change /veh KRT8 (11758188_x_at) / RFU NKD1 (11759106_at) / Fold change /veh NKD1 (11759106_at) / RFU SRD5A1 (11742802_a_at) / Fold change /veh SRD5A1 (11742802_a_at) / RFU TPSAB1 /// TPSB2 (11721975_s_at) / Fold change /veh TPSAB1 /// TPSB2 (11721975_s_at) / RFU GSTM3 (11746129_a_at) / Fold change /veh GSTM3 (11746129_a_at) / RFU IL23R (11737362_x_at) / Fold change /veh IL23R (11737362_x_at) / RFU TMEM51 (11727254_a_at) / Fold change /veh TMEM51 (11727254_a_at) / RFU PIWIL2 (11732686_x_at) / Fold change /veh PIWIL2 (11732686_x_at) / RFU ORM1 (11744905_x_at) / Fold change /veh ORM1 (11744905_x_at) / RFU CCDC152 (11743942_at) / Fold change /veh CCDC152 (11743942_at) / RFU ECM1 (11717891_a_at) / Fold change /veh ECM1 (11717891_a_at) / RFU IL23R (11748794_a_at) / Fold change /veh IL23R (11748794_a_at) / RFU TNFAIP8L3 (11732012_x_at) / Fold change /veh TNFAIP8L3 (11732012_x_at) / RFU MBOAT4 (11741988_at) / Fold change /veh MBOAT4 (11741988_at) / RFU 11764193_at / Fold change /veh 11764193_at / RFU TMEM53 (11763286_at) / Fold change /veh TMEM53 (11763286_at) / RFU MAGEB2 (11727129_at) / Fold change /veh MAGEB2 (11727129_at) / RFU TMEM200A (11744735_a_at) / Fold change /veh TMEM200A (11744735_a_at) / RFU CCDC152 (11751479_a_at) / Fold change /veh CCDC152 (11751479_a_at) / RFU FAM211A (11726209_a_at) / Fold change /veh FAM211A (11726209_a_at) / RFU RGS16 (11746705_a_at) / Fold change /veh RGS16 (11746705_a_at) / RFU VCAN (11755009_s_at) / Fold change /veh VCAN (11755009_s_at) / RFU RHOB (11743442_s_at) / Fold change /veh RHOB (11743442_s_at) / RFU RGS16 (11720943_a_at) / Fold change /veh RGS16 (11720943_a_at) / RFU RGS16 (11720944_at) / Fold change /veh RGS16 (11720944_at) / RFU, VPS4B / Fold change vs veh, VPS4B / RFU, CREB1 / Fold change vs veh, CREB1 / RFU, DNAJC13 / Fold change vs veh, DNAJC13 / RFU, GNAQ / Fold change vs veh, GNAQ / RFU, CDK5R1 / Fold change vs veh, CDK5R1 / RFU, ZRANB3 / Fold change vs veh, ZRANB3 / RFU, CUL4A / Fold change vs veh, CUL4A / RFU, CCNY / Fold change vs veh, CCNY / RFU, UFL1 / Fold change vs veh, UFL1 / RFU, COG3 / Fold change vs veh, COG3 / RFU, DIAPH2 / Fold change vs veh, DIAPH2 / RFU, SKA2 / Fold change vs veh, SKA2 / RFU, AFF3 / Fold change vs veh, AFF3 / RFU, LMF1 / Fold change vs veh, LMF1 / RFU, IPO11 / Fold change vs veh, IPO11 / RFU, DFFB / Fold change vs veh, DFFB / RFU, FOXP1 / Fold change vs veh, FOXP1 / RFU, CARD8 / Fold change vs veh, CARD8 / RFU, STRN3 / Fold change vs veh, STRN3 / RFU, ADK / Fold change vs veh, ADK / RFU, RASSF2 / Fold change vs veh, RASSF2 / RFU, WIPF1 / Fold change vs veh, WIPF1 / RFU, LARP1B / Fold change vs veh, LARP1B / RFU, RASA1 / Fold change vs veh, RASA1 / RFU, RB1 / Fold change vs veh, RB1 / RFU, PPFIA1 / Fold change vs veh, PPFIA1 / RFU, MAT2A / Fold change vs veh, MAT2A / RFU, CCT5 / Fold change vs veh, CCT5 / RFU, WDR92 / Fold change vs veh, WDR92 / RFU, CUX1 / Fold change vs veh, CUX1 / RFU, TTC7A / Fold change vs veh, TTC7A / RFU, TMEM135 / Fold change vs veh, TMEM135 / RFU, DEPTOR / Fold change vs veh, DEPTOR / RFU, CPM / Fold change vs veh, CPM / RFU, DNAJB6 / Fold change vs veh, DNAJB6 / RFU, CACNA2D3 / Fold change vs veh, CACNA2D3 / RFU, DTX4 / Fold change vs veh, DTX4 / RFU, TFCP2 / Fold change vs veh, TFCP2 / RFU, GMCL1 /// GMCL1P1 / Fold change vs veh, GMCL1 /// GMCL1P1 / RFU, AEBP2 / Fold change vs veh, AEBP2 / RFU, SNHG1 /// SNORD22 /// SNORD25 /// SNORD26 /// SNORD27 /// SNORD28 /// SNORD29 /// SNORD31 / Fold change vs veh, SNHG1 /// SNORD22 /// SNORD25 /// SNORD26 /// SNORD27 /// SNORD28 /// SNORD29 /// SNORD31 / Fold change (Aza/veh), C12orf56 (ProbeSet 11735607_a_at) / Fold change (ACY-1035/veh), C12orf56 (ProbeSet 11735607_a_at) / Fold change (Aza/veh), FGFR1OP (ProbeSet 11751329_s_at) / Fold change (ACY-1035/veh), FGFR1OP (ProbeSet 11751329_s_at) / Fold change (Aza/veh), VPS36 (ProbeSet 11739960_a_at) / Fold change (ACY-1035/veh), VPS36 (ProbeSet 11739960_a_at) / RFU SYPL1 (11715823_x_at) / Fold change /veh SYPL1 (11715823_x_at) / RFU IGFBP7 (11715501_s_at) / Fold change /veh IGFBP7 (11715501_s_at) / RFU REEP3 (11722064_at) / Fold change /veh REEP3 (11722064_at) / RFU IGLL1 (11728026_x_at) / Fold change /veh IGLL1 (11728026_x_at): dose or concentration left out as unconfirmed
Conditions: ProbeSet 11745789_a_at; LIST D

Nc1ccc(-c2cccs2)cc1NC(=O)c1ccc2c(c1)cc(C1CC1)n2CCN1CCOCC1 [ACY-1035]
RFU, TMEM135: 185.11 RFU
